These results are taken from PubChem BioAssay (NCI).

Each structure is given as a SMILES string.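 Five compound concentrations were applied to cells in 96-well plates for 48 hours; endpoints were derived by simple linear interpolation of the resulting dose-response curve. TGI denotes the concentration required for complete inhibition of growth.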 A value given as a limit tells only on which side of the number the result lay.

Some test systems named below: OVCAR-4 ovarian; COLO 205 colon; K-562 leukemia; HCT-15 colon; NCI-H23 lung; NCI-H460 lung; M14 melanoma; SF-268 CNS; OVCAR-8 ovarian; SW-620 colon; U251 CNS; NCI/ADR-RES ovarian; MDA-MB-435.
Common to all, as to assay: NCI-60 cell line screen, 48 h

With `CSc1ccc2c(cc1=O)[C@@H](NC(=O)c1cc(O)c(O)c(O)c1)CCc1cc(O)c(O)c(O)c1-2`, the TGI with OVCAR-4 ovarian was determined as 22.7 µM; with COLO 205 colon, 75.3 µM; in the assay on K-562 leukemia it was 18.9 µM; with HCT-15 colon, 41.4 µM; in the assay with NCI-H23 lung, 39.7 µM; in the assay on NCI-H460 lung, 44.3 µM. Besides, the TGI with M14 melanoma is 36.6 µM; with SF-268 CNS it was greater than 100 µM; with OVCAR-8 ovarian, 54.2 µM; in the assay with SW-620 colon it was 39.6 µM; in the assay on U251 CNS, 37.7 µM.

Turning to `Cc1cc(C)nc(NC(P(=O)(O)O)P(=O)(O)O)n1`, the TGI with COLO 205 colon, in the assay on HCT-15 colon, in the assay with NCI-H23 lung, in the assay on NCI-H460 lung, in the assay on M14 melanoma and in the assay on SF-268 CNS was greater than 100 µM in each case. Besides, the TGI in the assay on OVCAR-8 ovarian and in the assay on NCI/ADR-RES ovarian was greater than 100 µM throughout.

On to `C1=NC(N(Cc2ccccc2)Cc2ccccc2)N(Cc2ccccc2)N1` (stereo not drawn), for which the TGI with OVCAR-4 ovarian was found to be 36.7 µM; with COLO 205 colon it was 30.8 µM; in the assay on K-562 leukemia, 43.9 µM; with HCT-15 colon, 34.4 µM; in the assay with NCI-H23 lung it was 54.9 µM; with NCI-H460 lung, 37.2 µM. The TGI in the assay on M14 melanoma was 23.1 µM; in the assay with SF-268 CNS, 47.4 µM; with OVCAR-8 ovarian, 54.5 µM; with SW-620 colon, 49.9 µM; in the assay on U251 CNS it was 32.1 µM.

`CC1(C)O[C@H]2OC(CO)C(N=[N+]=[N-])[C@H]2O1` (stereo partly drawn): the TGI with MDA-MB-435, in the assay on OVCAR-4 ovarian, in the assay on COLO 205 colon, in the assay on HCT-15 colon, in the assay on NCI-H23 lung and with NCI-H460 lung was greater than 100 µM in each case. For the same compound, the TGI with M14 melanoma, in the assay with SF-268 CNS, with OVCAR-8 ovarian, in the assay with NCI/ADR-RES ovarian, in the assay on SW-620 colon and with U251 CNS was greater than 100 µM throughout.

For `CC(=O)OCCOCNC(=S)N/N=C/c1ccc([N+](=O)[O-])s1`, the TGI is greater than 100 µM in the assay on OVCAR-4 ovarian; 4.61 µM with COLO 205 colon; greater than 100 µM with K-562 leukemia; greater than 100 µM with HCT-15 colon; 43.1 µM in the assay with NCI-H23 lung; greater than 100 µM in the assay on NCI-H460 lung. The TGI with M14 melanoma, in the assay on SF-268 CNS, in the assay with OVCAR-8 ovarian, in the assay with SW-620 colon and with U251 CNS was greater than 100 µM each time.

In the case of `N/C(=N\S(=O)(=O)c1ccc(-c2ncccc2C(F)(F)F)s1)Nc1ccc(Cl)cc1`, the TGI in the assay with OVCAR-4 ovarian is 42.9 µM; in the assay on COLO 205 colon it was greater than 100 µM; in the assay with K-562 leukemia, 63.8 µM; in the assay with HCT-15 colon it was 32.2 µM; with NCI-H23 lung it was 27.5 µM; with NCI-H460 lung, 25.9 µM. For the same compound, the TGI in the assay with M14 melanoma came out at 31.2 µM; in the assay with SF-268 CNS, 31.5 µM; in the assay with OVCAR-8 ovarian it was 29.7 µM; in the assay on NCI/ADR-RES ovarian, 41.1 µM; with SW-620 colon, 35.6 µM; in the assay with U251 CNS, 25.8 µM.

For `CCOC(=O)CCC(NC(=O)c1ccc(NCc2ccc3nc(-c4ccccc4)c(Cl)nc3c2)cc1)C(=O)OCC` (stereo not drawn), the TGI is 90.6 µM in the assay with OVCAR-4 ovarian; 41.7 µM with COLO 205 colon; greater than 100 µM in the assay with K-562 leukemia; greater than 100 µM with HCT-15 colon; greater than 100 µM in the assay on NCI-H23 lung; greater than 100 µM in the assay on NCI-H460 lung. In addition, the TGI in the assay with M14 melanoma was 39.5 µM; with SF-268 CNS it was greater than 100 µM; with SW-620 colon it was greater than 100 µM; in the assay with U251 CNS, greater than 100 µM.

Regarding `COc1ccc2nc(-c3ccccc3)c(=O)[nH]c2c1`, the TGI in the assay with MDA-MB-435, in the assay on COLO 205 colon, in the assay with K-562 leukemia, with HCT-15 colon, in the assay with NCI-H23 lung and in the assay on NCI-H460 lung was greater than 100 µM each time. Also, the TGI with M14 melanoma, with SF-268 CNS, in the assay on OVCAR-8 ovarian, in the assay with NCI/ADR-RES ovarian and with SW-620 colon was greater than 100 µM each time.

`COC(=O)N[C@H](C(=O)NC(OCc1ccccc1)C1COC(C)(C)O1)C(C)O[Si](C)(C)C(C)(C)C` (stereo partly drawn): the TGI with OVCAR-4 ovarian, in the assay with COLO 205 colon, in the assay with K-562 leukemia, in the assay with HCT-15 colon, in the assay on NCI-H23 lung and with NCI-H460 lung was greater than 100 µM throughout. Also, the TGI with M14 melanoma, with SF-268 CNS, in the assay on OVCAR-8 ovarian, in the assay with NCI/ADR-RES ovarian, in the assay on SW-620 colon and in the assay with U251 CNS was greater than 100 µM throughout.

On to `CCOC(=O)C(NC(=O)c1ccccc1)(N1CCN(c2cc3c(cc2F)c(=O)c(C(=O)O)cn3C2CC2)CC1)C(F)(F)F` (stereo not drawn), for which the TGI with MDA-MB-435 was 45.2 µM; in the assay on OVCAR-4 ovarian, 63.4 µM; in the assay on COLO 205 colon, 30.8 µM; with K-562 leukemia it was 46.6 µM; with NCI-H23 lung, 32.9 µM; in the assay on NCI-H460 lung, 44.6 µM. For the same compound, the TGI in the assay on M14 melanoma is 40.7 µM; in the assay with SF-268 CNS, 41.8 µM; with OVCAR-8 ovarian, greater than 100 µM; with SW-620 colon, 51.1 µM; in the assay with U251 CNS, greater than 100 µM.

As to `COc1cc(Nc2nc3cc(C(F)(F)F)ccc3nc2C(=O)O)cc(OC)c1OC`, the TGI in the assay on MDA-MB-435, in the assay on OVCAR-4 ovarian, in the assay with COLO 205 colon, in the assay on HCT-15 colon, in the assay on NCI-H23 lung and in the assay with NCI-H460 lung was greater than 100 µM in each case. Besides, the TGI with M14 melanoma, in the assay on SF-268 CNS, with OVCAR-8 ovarian, with NCI/ADR-RES ovarian, in the assay with SW-620 colon and with U251 CNS was greater than 100 µM throughout.

For `CC(=O)NC1C(Sc2ncn(C3OC(CO)C(O)C(O)C3NC(C)=O)n2)OC(CO)C(O)C1O` (stereo not drawn), the TGI in the assay with MDA-MB-435, with OVCAR-4 ovarian, with COLO 205 colon, in the assay with HCT-15 colon, with NCI-H23 lung and in the assay with NCI-H460 lung was greater than 100 µM in each case. Besides, the TGI in the assay on M14 melanoma, in the assay with SF-268 CNS, in the assay with OVCAR-8 ovarian, in the assay with NCI/ADR-RES ovarian, in the assay on SW-620 colon and with U251 CNS was greater than 100 µM throughout.
